Data taken from patent US7781565B2 (priority 2006, dated 2010).
“Also recorded” adds a separate entry of the source.

Tested on: NCI-60 cell lines
Type: cell-based, human

Row | Substance | Cell Line with which the peptide (and its tripeptide motif) is associated | Cell Line (NCI-60 cell line the peptide and its motif are associated with) | Cell Line the peptide is associated with (peptide recovered from phage library selection on this NCI-60 cell line) | Cell Line (NCI-60 cell line the peptide is associated with)
1 | THRNRSS | SR Leukemia |  |  | 
2 | THVGGVR |  | OVCAR-8 Ovarian |  | 
3 | TICLGLG |  |  | CAIK-1 Renal | 
4 | TIPAGGG |  |  | MDA-MB-231 Breast | 
5 | TLGGLRT |  |  |  | SF-295 CNS
6 | TLGLRVP |  |  | TK-10 Renal | 
7 | TLGRLSS |  | DU-145 Prostate |  | 
8 | TLGSVRV |  | SK-MEL-5 Melanoma |  | 
9 | TLGVLVT |  |  | NCI/ADR-RES Breast | 
10 | TLTAAVF |  | UACC 257 Melanoma |  | 
11 | TLVLGGS | Hop-92-Lung |  |  | 
12 | TNRFARG |  |  | T-47D Breast | 
13 | TQVEARG |  |  | HS 578 T Breast | 
14 | TQYYGSS |  |  |  | SNB-19 CNS; also recorded: SF-539 CNS
15 | TRASRRG |  |  |  | SNB-75 CNS
16 | TRDGVRW |  |  | RXF393 Renal | 
17 | TREGGLD |  |  |  | KM-12C Colon
18 | TRGAVFG |  | SK-MEL-5 Melanoma |  | 
19 | TRGDAVS |  |  |  | SF-295 CNS
20 | TRGSGAG |  |  | HS 578 T Breast | 
21 | TRGVIGG |  |  | T-47D Breast | 
22 | TRLGGLT |  |  |  | SF-295 CNS

Row | Substance | Cell Line with which the peptide (and its tripeptide motif) is associated | Cell Line (NCI-60 cell line the peptide and its motif are associated with) | Cell Line the peptide is associated with (peptide recovered from phage library selection on this NCI-60 cell line) | Cell Line (NCI-60 cell line the peptide is associated with)
23 | TRLSFRH |  | SK-OV-3-3 Ovarian |  | 
24 | TRRGRLD |  |  | SN12C Renal | 
25 | TRSSLTH |  |  | TK-10 Renal | 
26 | TRVSGSG |  |  | BT-549 Breast | 
27 | TRYSLRS |  |  | TK-10 Renal | 
28 | TSGAVAP |  |  | HS 578 T Breast | 
29 | TSGRLWV |  | M14 Melanoma |  | 
30 | TSLLSFR | CCRF-CEM Leukemia |  |  | 
31 | TSRGLRL |  | UACC 257 Melanoma |  | 
32 | TTGSVIV | H23-Lung |  |  | 
33 | TTLLSRQ |  | OVCAR-5 Ovarian |  | 
34 | TTQLRGV |  | UACC62 Melanoma |  | 
35 | TVGSGCL |  |  |  | HCT-116 Colon
36 | TVGSSLG |  |  | T-47D Breast | 
37 | TWGRLGL |  |  | ACHN Renal | 
38 | TWHAGGI |  |  | ACHN Renal | 
39 | TWIGRVS |  |  |  | LOX-IMVI Melanoma
40 | TWSTGGR |  |  |  | LOX-IMVI Melanoma
41 | TYCDRAV |  |  | BT-549 Breast | 
42 | VAASESH | Hop-62-Lung |  |  | 
43 | VAASVRE |  | OVCAR-3 Ovarian |  | 
44 | VAELLSM |  | OVCAR-5 Ovarian |  | 

Row | Substance | Cell Line with which the peptide (and its tripeptide motif) is associated | Cell Line (NCI-60 cell line the peptide and its motif are associated with) | Cell Line the peptide is associated with (peptide recovered from phage library selection on this NCI-60 cell line) | Cell Line (NCI-60 cell line the peptide is associated with)
45 | VAGRLQM |  | OVCAR-4 Ovarian |  | 
46 | VAGRVGI |  | MALME-3M Melanoma |  | MALME-3M Melanoma
47 | VALGVSS |  |  | T-47D Breast | 
48 | VARAVPC | Hop-92-Lung |  |  | 
49 | VARGQMQ | H226-Lung |  |  | 
50 | VARSSFR |  | IGROV1 Ovarian |  | 
51 | VAVGVRS |  |  | HS 578 T Breast | 
52 | VAWRGVS | A549-Lung |  |  | 
53 | VDGSGDD |  | DU-145 Prostate |  | 
54 | VDLRSAF |  |  | ACHN Renal | 
55 | VDVGGAG |  | 786-0 Renal |  | 
56 | VEEGRLR |  |  |  | SW620-Colon
57 | VEYAAGR | CCRF-CEM Leukemia |  |  | 
58 | VFQRSSG | A549-Lung |  |  | 
59 | VGAGRFT |  |  | MDA-MB-231 Breast | 
60 | VGAVYFL | H322-Lung |  |  | 
61 | VGIGAGG |  |  | T-47D Breast | 
62 | VGLGHWP | Hop-62-Lung |  |  | 
63 | VGLGNSA |  | SK-MEL-2 Melanoma |  | 
64 | VGLRCSV |  |  | BT-549 Breast | 
65 | VGLRDWG |  |  |  | SW620-Colon
66 | VGLRVRF |  |  | BT-549 Breast | 

Row | Substance | Cell Line with which the peptide (and its tripeptide motif) is associated | Cell Line (NCI-60 cell line the peptide and its motif are associated with) | Cell Line the peptide is associated with (peptide recovered from phage library selection on this NCI-60 cell line) | Cell Line (NCI-60 cell line the peptide is associated with)
67 | VGPSVHL |  | 786-0 Renal |  | 
68 | VGRAGGL |  |  | MDA-MB-231 Breast | 
69 | VGRGRLH | EKVX-Lung |  |  | 
70 | VGRLAKG | Hop-62-Lung |  |  | 
71 | VGRLQTT |  | UACC62 Melanoma |  | 
72 | VGSSHGL |  | SK-MEL-28 Melanoma |  | 
73 | VGSTRSS |  | SK-MEL-28 Melanoma |  | 
74 | VGSVGLG | Hop-62-Lung |  |  | 
75 | VGSVKAS |  | PC3 Prostate |  | 
76 | VGSVSVN | A549-Lung |  |  | 
77 | VGSVVGR | Hop-92-Lung |  |  | 
78 | VGVMGGR |  |  | CAIK-1 Renal | 
79 | VGVRFSR |  | SK-MEL-28 Melanoma |  | 
80 | VGVSQEW |  |  | TK-10 Renal | 
81 | VHKRAVL |  |  | UO31 Renal | 
82 | VHRVSGG | RPMI-8226-Leukemia |  |  | 
83 | VHSLRAS |  | UACC 257 Melanoma |  | 
84 | VIGSRLS | EKVX-Lung |  |  | 
85 | VIVRGSL |  |  | UO31 Renal | 
86 | VKGSSMR |  |  | A498 Renal | 
87 | VLASLSG |  | IGROV1 Ovarian |  | 
88 | VLFSAGS | K-562-Leukemia |  |  | 

Row | Substance | Cell Line with which the peptide (and its tripeptide motif) is associated | Cell Line (NCI-60 cell line the peptide and its motif are associated with) | Cell Line the peptide is associated with (peptide recovered from phage library selection on this NCI-60 cell line) | Cell Line (NCI-60 cell line the peptide is associated with)
89 | VLGMRSS | SR Leukemia |  |  | 
90 | VLLSAGL |  |  | RXF393 Renal | 
91 | VLRAASR |  |  |  | HT-29 Colon
92 | VLRGSTP |  | PC3 Prostate |  | 
93 | VLRSALQ |  |  |  | KM-12C Colon
94 | VLRSGEL |  |  |  | SF-295 CNS
95 | VLRSIPS |  |  |  | SF-295 CNS
96 | VLSAVSS |  |  |  | SNB-19 CNS; also recorded: SF-539 CNS
97 | VLTRAST |  |  |  | HCC-2998-Colon
98 | VLVEGAV |  |  | TK-10 Renal | 
99 | VMDRGVA |  | UACC 257 Melanoma |  | 
100 | VMGAGVQ |  |  | ACHN Renal | 
101 | VMGGPSL | Hop-62-Lung |  |  | 
102 | VMLLRPE | HL-60-Leukemia |  |  | 
103 | VMPGSVV |  |  |  | SF-295 CNS
104 | VMWVARG |  |  |  | KM-12C Colon
105 | VNLGGSW | H322-Lung |  |  | 
106 | VPLRSSA |  |  |  | HT-29 Colon
107 | VPPSGGR |  |  | RXF393 Renal | 
108 | VPSGSVR |  |  | NCI/ADR-RES Breast | 
109 | VRAAGRV | Hop-62-Lung |  |  | 
110 | VRANGGS |  |  | MDA-MB-231 Breast | 
